# Earlier results as cited in US20080175908A1, “TABLET-IN-TABLET COMPOSITIONS” (Wyeth, priority 2007, published 2008).
# How the values were obtained:
# uterine response = settings: preclinical models of uterine stimulation
# [1] = system: ovariectomized rat model of osteopenia
# [2] = system: MCF-7 cell line (human breast cancer cell line)
smiles,measurement,setting,value
"Cc1c(-c2ccc(O)cc2)n(Cc2ccc(OCCN3CCCCCC3)cc2)c2ccc(O)cc12 [bazedoxifene acetate, 1-[4-(2-azepan-1-yl-ethoxy)-benzyl]-2-(4-hydroxy-phenyl)-3-methyl-1H-indol-5-ol acetic acid]",stimulation of uterine response,uterine response,little or no stimulation of uterine response
same,prevention of bone loss,[1],estrogen agonist-like effect in preventing bone loss
same,reduction of cholesterol,[1],reducing cholesterol
same,estrogen antagonist behaviour,[2],behaves as an estrogen antagonist
